In patent publication US8937065B2, “Compositions and methods for modulating a kinase” (Clevexel Pharma, priority 2011, dated 2015):
In brackets after ≈: the same amount, converted by molar mass.

Tests used:
[1] = tested on: Interleukin 4/STAT6-STAT6-bla RA1; assay: Interleukin 4/STAT6-STAT6-bla RA1 inhibition (IL-4-stimulated STAT6 activity in Ramos cells); type: cell-based; settings: Homo sapiens, Ramos; Table 1, 6th column; read-out: Cell based IL4 stimulation IC50
Experimental: The inhibition of Interleukin 4/STAT6-STAT6-bla RA1 (activated by IL-4) by several compounds was determined using the Screening Protocol and Assay Conditions (Invitrogen, Madison, Wis.). The assays were performed according to manufacturer's protocols. Example 4, Cell-line Specific Protocols IL-4-stimulated STAT6 activity in Ramos cells for details.
Mechanism-based inhibition assays using compound 7A (Table 1) were performed using GeneBLAzer® Technology (Invitrogen Corporation), according to manufacturer specifications. […] In this state, excitation of the coumarin results in fluorescence resonance energy transfer to the fluorescein moiety and emission of green light. […] Excitation of the coumarin in the presence of Beta-lactamase activity results in a blue fluorescence signal. […]
An activator assay screen was run to obtain the EC80 concentration of the known activator to add in step 3. • 1. […] 4 μL of the EC80 concentration of activator, as determined in an Activator assay, was added to all wells containing compound and known inhibitor to bring the final assay volume to 40 μL. • 4. […] The assay plate was read on a fluorescence plate reader (Tecan Safire) and the data is analyzed. […]
STAT6-bla RA1 cells were thawed. […] The plate was read on a fluorescence plate reader.

[2] = target: T1, JAK3 (Homo sapiens, UniProt P52333); assay: JAK3 enzymatic activity assay (Z'-LYTE Biochemical Kinase Assay, 2 hr preincubation at 4° C.); settings: cell free, 1% DMSO, read-out: JAK3 activity cell free (2 hr preincubation at (4° C.) Kj)
T1 construct: purchased Invitrogen, Madison, Wis
T1 sequence (P52333 1-1124): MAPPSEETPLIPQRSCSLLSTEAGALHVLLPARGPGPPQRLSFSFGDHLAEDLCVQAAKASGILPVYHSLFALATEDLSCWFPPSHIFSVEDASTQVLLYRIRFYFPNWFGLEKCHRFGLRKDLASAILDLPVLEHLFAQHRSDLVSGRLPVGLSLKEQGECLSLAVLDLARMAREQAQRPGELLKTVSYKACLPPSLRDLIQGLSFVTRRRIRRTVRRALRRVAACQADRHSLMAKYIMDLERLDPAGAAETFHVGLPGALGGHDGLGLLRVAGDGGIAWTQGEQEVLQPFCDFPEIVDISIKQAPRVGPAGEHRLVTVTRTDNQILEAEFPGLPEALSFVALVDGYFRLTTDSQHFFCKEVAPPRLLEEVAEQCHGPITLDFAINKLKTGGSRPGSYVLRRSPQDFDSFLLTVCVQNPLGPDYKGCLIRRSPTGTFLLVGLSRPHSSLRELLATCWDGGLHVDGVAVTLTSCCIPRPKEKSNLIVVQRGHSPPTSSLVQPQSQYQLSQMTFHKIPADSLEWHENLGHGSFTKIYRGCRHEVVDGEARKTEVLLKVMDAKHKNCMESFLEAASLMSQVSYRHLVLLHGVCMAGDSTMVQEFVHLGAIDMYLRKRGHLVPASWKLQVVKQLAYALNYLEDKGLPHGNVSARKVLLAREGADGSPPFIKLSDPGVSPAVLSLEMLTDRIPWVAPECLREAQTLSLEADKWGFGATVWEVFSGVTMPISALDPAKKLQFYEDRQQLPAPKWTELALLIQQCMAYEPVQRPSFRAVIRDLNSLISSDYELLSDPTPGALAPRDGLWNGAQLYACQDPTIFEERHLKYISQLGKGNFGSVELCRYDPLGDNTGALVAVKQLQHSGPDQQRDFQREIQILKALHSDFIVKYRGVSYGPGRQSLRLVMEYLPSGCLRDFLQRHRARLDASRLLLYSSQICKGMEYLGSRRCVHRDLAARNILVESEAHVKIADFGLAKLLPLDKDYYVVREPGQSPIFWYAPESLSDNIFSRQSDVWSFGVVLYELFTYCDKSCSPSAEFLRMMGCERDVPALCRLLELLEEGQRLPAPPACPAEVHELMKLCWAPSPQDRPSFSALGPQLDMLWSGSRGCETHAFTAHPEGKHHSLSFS
Experimental: The assays were performed according to manufacturer's protocols, except that prior to the kinase reaction they were pre-incubated for 2 hours at 4° C., in order to be able to assay for time-dependent inhibition.
In addition to the compound, each 10 μL JAK3 kinase reaction contained 0.43-1.89 ng JAK3 and 2 μM peptide substrate in 50 mM HEPES (pH 7.5), 0.01% BRIJ-35, 10 mM MgCl2 and 1 mM EGTA. The kinase reaction was allowed to proceed for 1 hour.

[3] = physchem; settings: pH 7.4, aqueous buffer, thermodynamic from solid
Experimental: The test concentration was 100 μM (0% of DMSO for test compounds, 1% of DMSO for reference compounds). The test system was a 100 mM phosphate buffer (pH 7.4). Sample size was duplicates (n=2) and the bioanalytical method was LC-UV (Agilent-1200). Mobile phase A: H2O-1% TFA, B: MeOH-1% TFA; column Boston Symmetrix ODS-H (2.1×50 mm, 5 μm); LC conditions 0.4 mL/Min.
Assay Procedure • 1. For reference compounds: • Add 8 μL of 10 mM DMSO stock solution into 792 μL of 100 mM phosphate buffer (n=2). Final conc.=100 μM (1% of DMSO)
For test compounds: • Add 8 μL of 10 mM DMSO stock solution into the tubes (n=2). • Dry the samples under nitrogen. • Add 800 μL of 100 mM phosphate buffer into the tubes. Final conc.=100 μM (0% of DMSO) • 2. Sample tubes are shaken for 1 hour (1000 rpm) at room temperature and 37° C. • 3. Samples are centrifuged (10 min-12000 rpm) to precipitate un-dissolved particles. • 4. Supernatants are transferred to new tubes • 5. Concentrations of the supernatants after centrifugation are determined by LC-UV detection.

Row | Structure (SMILES) | solubility at 1 h ([3]; Solubility (μM) Mean) [µM] | solubility at 1 h ([3]; Solubility in PBS) [µM] | other results
1 | O=C(c1cc(-c2csc(-c3ccccc3)n2)c[nH]1)N1CCCC1 [11A] |  |  | IC50 [1]: 110 to 1000 nM; Ki [2]: 1100 to 10000 nM
2 | O=C(CN1CCOCC1)Nc1cccc(-c2nc(-c3c[nH]c(C(=O)N4CCCC4)c3)cs2)c1 [7A (sample 1), 2-morpholino-N-(3-(4-(5-(pyrrolidine-1-carbonyl)-1H-pyrrol-3-yl)thiazol-2-yl)phenyl)acetamide] | 5.9 (≈ 2.75 µg/mL) | < 10 | 
3 | Cl.O=C(CN1CCOCC1)Nc1cccc(-c2nc(-c3c[nH]c(C(=O)N4CCCC4)c3)cs2)c1 [9X (sample 2), 2-morpholino-N-(3-(4-(5-(pyrrolidine-1-carbonyl)-1H-pyrrol-3-yl)thiazol-2-yl)phenyl)acetamide hydrochloride salt] | 51.9 | 10 to 80 | 
4 | CC(C)NCC(O)COc1cccc2ccccc12 (centres unmarked) [Propranolol, reference compound] |  |  | solubility at 1 h ([3]; Solubility (μM) Mean, kinetic solubility, 100 mM phosphate buffer (pH 7.4), test concentration 100 μM, n=2, LC-UV): > 100 µM; solubility at 1 h ([3]; Solubility in PBS, 100 mM phosphate buffer pH 7.4, test concentration 100 μM): ~100 µM (≈ 25.9 µg/mL)
